Test results taken from ChEMBL document CHEMBL3286223, “Anticancer phytochemical analogs 37: synthesis, characterization, molecular docking and cytotoxicity of novel plumbagin hydrazones against breast cancer cells” (Bioorg Med Chem Lett, 2014).
The source made the active and inactive calls. The rule behind the calls is not given here.

Columns and labels:
MCF7 = test: Cytotoxicity against human MCF7 cells expressing estrogen and progesterone receptor after 72 hrs by MTT assay; assay type: functional, cell-based
MDA-MB-231 = test: Cytotoxicity against estrogen receptor-deficient human MDA-MB-231 cells after 72 hrs by MTT assay; assay type: functional, cell-based; settings: MDA-MB-231, 72 h
[1] = Cytotoxicity against human MCF10A cells after 72 hrs by MTT assay; assay type: cell-based; settings: mcf-10a
[2] = biological target: Transcription factor p65 (Homo sapiens) (UniProt Q04206); test: Reduction of NFkappaB p65 expression in estrogen receptor-deficient human MDA-MB-231 cells at 5 uM after 72 hrs by Western blot analysis; assay type: cell-based
Chain of Transcription factor p65 (Homo sapiens) (Q04206 whole entry): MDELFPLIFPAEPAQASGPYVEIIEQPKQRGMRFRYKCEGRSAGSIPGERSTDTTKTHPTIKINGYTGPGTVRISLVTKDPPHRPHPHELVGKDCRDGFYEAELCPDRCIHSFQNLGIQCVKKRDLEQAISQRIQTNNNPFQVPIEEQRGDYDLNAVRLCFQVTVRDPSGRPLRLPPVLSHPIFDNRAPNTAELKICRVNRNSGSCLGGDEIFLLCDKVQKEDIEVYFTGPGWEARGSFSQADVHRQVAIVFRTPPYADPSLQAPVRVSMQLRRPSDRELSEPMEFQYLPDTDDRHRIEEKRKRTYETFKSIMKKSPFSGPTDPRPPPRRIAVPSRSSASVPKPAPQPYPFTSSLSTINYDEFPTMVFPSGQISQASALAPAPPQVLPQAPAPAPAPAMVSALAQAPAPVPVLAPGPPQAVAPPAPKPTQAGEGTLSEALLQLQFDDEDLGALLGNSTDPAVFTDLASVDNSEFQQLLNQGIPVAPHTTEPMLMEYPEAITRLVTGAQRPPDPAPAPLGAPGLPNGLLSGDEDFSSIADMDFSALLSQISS

SMILES	Activity (MCF7)	IC50 (MDA-MB-231) [µM]	Activity [1]	Activity [2]
CC1=CC(=O)c2c(O)cccc2C1=O	Active	–	–	–
CC1=C/C(=N\NC(=O)c2cc3ccccc3cc2O)c2c(O)cccc2C1=O	Active	3.2	Non-toxic	Active
CC1=C/C(=N\NC(N)=S)c2c(O)cccc2C1=O	Active	–	Non-toxic	–
CC(=O)N/N=C1\C=C(C)C(=O)c2cccc(O)c21	Active	–	Non-toxic	–
CC1=C/C(=N\NC(=O)Cc2c[nH]c3ccccc23)c2c(O)cccc2C1=O	Active	1.5	Non-toxic	Active
